Reference: patent EP2790511B1 (Merck Sharp & Dohme Corp., priority 2011, dated 2013)

What follows are molecules tested against T1, hROMK (hKir1.1) (Homo sapiens, UniProt P48048) (assay: Thallium Flux Assay). Details: HEK293 cells stably expressing hROMK (hKir1.1), FLIPR-Tetra; read-out: Thallium Flux IC50.
T1 construct: expressed in transfected cells
T1 sequence (P48048 1-391): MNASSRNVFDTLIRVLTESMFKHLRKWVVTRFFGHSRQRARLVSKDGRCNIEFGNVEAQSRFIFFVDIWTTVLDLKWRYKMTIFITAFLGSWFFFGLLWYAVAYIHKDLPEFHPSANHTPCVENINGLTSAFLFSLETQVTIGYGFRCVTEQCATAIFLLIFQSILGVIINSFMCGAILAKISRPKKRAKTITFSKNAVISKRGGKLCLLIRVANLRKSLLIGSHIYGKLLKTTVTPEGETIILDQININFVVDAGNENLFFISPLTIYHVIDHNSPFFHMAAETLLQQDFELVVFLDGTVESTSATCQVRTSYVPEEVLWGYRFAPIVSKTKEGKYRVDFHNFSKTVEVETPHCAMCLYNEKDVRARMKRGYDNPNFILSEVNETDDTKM
Format: cell-based
Procedure, shortened: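 HEK293 cells stably expressing hROMK, loaded with FluxOR dye 90 min at ambient temperature, then compound 30 min with 0.3 mM ouabain in probenecid buffer pH 7.4.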

Which IC50 does the source give for `Cc1c([C@H]2CN3CCN(C(=O)Cc4ccc(-n5cnnn5)nn4)C[C@H]3CO2)ccc(F)c1C#N` [Example 155, 6-fluoro-2-methyl-3-[(3S,9aS)-8-{[6-(1H-tetrazol-1-yl)pyridazin-3-yl]acetyl}octahydropyrazino [2,1-c][1,4]oxazin-3-yl]benzonitrile] here?
Its IC50 is 300 nM.

How did the IC50 turn out when `Cc1c([C@H]2CN3CCN(C(=O)Cc4cnc(-n5cnnn5)nc4C(F)(F)F)C[C@H]3CO2)ccc(F)c1C#N` [Example 158, 6-fluoro-2-methyl-3-[(3S,9aS)-8-{[2-(1H-tetrazol-1-yl)-4-(trifluoromethyl)pyrimidin-5-yl]acetyl}octahydropyrazino[2,1-c][1,4]oxazin-3-yl]benzonitrile] was run?
The IC50 was 200 nM.

Which IC50 does the source give for `Cc1c([C@@H]2CN3CCN(C(=O)Cc4cnc(-n5cnnn5)nc4C(F)(F)F)C[C@H]3CO2)ccc(F)c1C#N` [Example 159, 6-fluoro-2-methyl-3-[(3R,9aS)-8-{[2-(1H-tetrazol-1-yl)-4-(trifluoromethyl)pyrimidin-5-yl]acetyl}octahydropyrazino[2,1-c][1,4]oxazin-3-yl]benzonitrile] here?
Its IC50 is 260 nM.

With `Cc1c([C@H]2CN3CCN(C(=O)Cc4cccc(-n5cnnn5)n4)C[C@@H]3CO2)ccc(F)c1C#N` [Example 160, 6-fluoro-2-methyl-3-[(3S,9aR)-8-{[6-(1H-tetrazol-1-yl)pyridin-2-yl]acetyl}octahydropyrazino[2,1-c][1,4]oxazin-3-yl]benzonitrile] as the molecule, how does the IC50 read?
The IC50 was 390 nM.

`Cc1c([C@@H]2CN3CCN(C(=O)Cc4cccc(-n5cnnn5)n4)C[C@@H]3CO2)ccc(F)c1C#N` [Example 161, 6-fluoro-2-methyl-3-[(3R,9aR)-8-{[6-(1H-tetrazol-1-yl)pyridin-2-yl]acetyl}octahydropyrazino[2,1-c][1,4]oxazin-3-yl]benzonitrile] was tested. Which IC50 did it give?
Its IC50 is 350 nM.

`Cc1c([C@@H]2CN3CCN(C(=O)Cc4ccc(-n5cnnn5)nc4)C[C@H]3CS2)ccc2c1COC2=O` [Example 166, 4-methyl-5-[(3R,9aS)-8-{[6-(1H-tetrazol-1-yl)pyridin-3-yl]acetyl}octahydropyrazino[2,1-c][1,4]thiazin-3-yl]-2-benzofuran-1(3H)-one] was tested. Which IC50 did it give?
The IC50 was 380 nM.

For `Cc1c([C@H]2CN3CCN(C(=O)Cc4ccc(-n5cnnn5)nc4)C[C@H]3CS2)ccc2c1COC2=O` [Example 167, 4-methyl-5-[(3S,9aS)-8-{[6-(1H-tetrazol-1-yl)pyridin-3-yl]acetyl}octahydropyrazino[2,1-c][1,4]thiazin-3-yl]-2-benzofuran-1(3H)-one], which IC50 is on record?
The IC50 was 420 nM.

For `COc1cc(F)c([C@@H]2CN3CCN(C(=O)Cc4cnc(-n5cnnn5)nc4)C[C@H]3CO2)cc1C#N` [Example 168, 4-fluoro-2-methoxy-5-[(3R,9aS)-8-{[2-(1H-tetrazol-1-yl)pyrimidin-5-yl]acetyl}octahydropyrazino[2,1-c][1,4]oxazin-3-yl]benzonitrile], which IC50 is on record?
The IC50 was 350 nM.

`Cc1cc([C@H]2CN3CCN(C(=O)Cc4ccc(-n5cnnn5)nc4)C[C@@H]3CO2)c(C)c(C#N)c1F` [Example 173, 2-fluoro-3,6-dimethyl-5-[(3S,9aR)-8-{[6-(1H-tetrazol-1-vl)pvridin-3-yl]acetyl}octahydropyrazino[2,1-c][1,4]oxazin-3-yl]benzonitrile] was tested. Which IC50 did it give?
Its IC50 is 300 nM.

Which IC50 does the source give for `Cc1cc([C@@H]2CN3CCN(C(=O)Cc4ccc(-n5cnnn5)nc4)C[C@@H]3CO2)c(C)c(C#N)c1F` [Example 174, 2-fluoro-3,6-dimethyl-5-[(3R,9aR)-8-{[6-(1H-tetrazol-1-vl)pvridin-3-yl]acetyl}octahydropyrazino[2,1-c][1,4]oxazin-3-yl]benzonitrile] here?
The IC50 was 350 nM.

How did the IC50 turn out when `O=C(Cc1cnc(-n2cnnn2)nc1)N1CCN2C[C@@H](c3ccc4nonc4c3)OC[C@@H]2C1` [Example 175, (3R,9aS)-3-(2,1,3-benzoxadiazol-5-yl)-8-{[2-(1H-tetrazol-1-vl)pvrimidin-5-yl]acetyl}octahydropyrazino[2,1-c][1,4]oxazine] was run?
Its IC50 is 530 nM.

Which IC50 does the source give for `Cc1c([C@H]2CN3CCN(C(=O)Cc4ccc(-n5cnnn5)nc4)C[C@H]3CO2)ccc2nonc12` [Example 176, (3S,9aS)-3-(4-methyl-2,1,3-benzoxadiazol-5-yl)-8-{[6-(1H-tetrazol-1-yl)pyridin-3-yl]acetyl}octahydropyrazino[2,1-c][1,4]oxazine] here?
The IC50 was 200 nM.

How did the IC50 turn out when `Cc1c([C@@H]2CN3CCN(C(=O)Cc4ccc(-n5cnnn5)nc4)C[C@H]3CO2)ccc2nonc12` [Example 177, (3R,9aS)-3-(4-methyl-2,1,3-benzoxadiazol-5-yl)-8-{[6-(1H-tetrazol-1-yl)pyridin-3-yl]acetyl}octahydropyrazino[2,1-c][1,4]oxazine] was run?
Its IC50 is 250 nM.

With `O=C(Cc1ccc(-n2cnnn2)cn1)N1CCN2C[C@@H](c3ccc4nonc4c3)OC[C@@H]2C1` [Example 178, (3R,9aS)-3-(2,1,3-benzoxadiazol-5-yl)-8-{[5-(1H-tetrazol-1-vl)pvridin-2-yl]acetyl}octahydropyrazino[2,1-c][1,4]oxazine] as the molecule, how does the IC50 read?
The IC50 was 350 nM.

For `Cc1c([C@H]2CN3CCN(C(=O)Cc4ccc(-n5cnnn5)nc4)C[C@H]3CS2)ccc(F)c1C#N` [Example 185, 6-fluoro-2-methyl-3-[(3S,9aS)-8-{[6-(1H-tetrazol-1-yl)pyridin-3-yl]acetyl}octahydropyrazino[2,1-c][1,4]thiazin-3-yl]benzonitrile], which IC50 is on record?
Its IC50 is 180 nM.

How did the IC50 turn out when `Cc1c([C@H]2CN3CCN(C(=O)Cc4ccc(-n5cnnn5)cn4)C[C@H]3CS2)ccc(F)c1C#N` [Example 186] was run?
The IC50 was 270 nM.

`Cc1c([C@H]2CN3CCN(C(=O)C(F)(F)c4cnc(-n5cnnn5)nc4)C[C@H]3CO2)ccc(F)c1C#N` [Example 188, 3-((3S,9aS)-8-(2-(2-(1H-tetrazol-1-yl)pyrimidin-5-yl)-2,2-difluoroacetyl)octahydropyrazino[2,1-c][1,4]oxazin-3-yl)-6-fluoro-2-methylbenzonitrile] was tested. Which IC50 did it give?
The IC50 was 350 nM.

`Cc1c([C@H]2CN3CCN(C(=O)Cc4cnc(-n5cnnn5)nc4)C[C@H]3CN2)ccc(F)c1C#N` [Example 189, 3-((3S,9aR)-8-(2-(2-(1H-tetrazol-1-yl)pyrimidin-5-yl)acetyl)octahydro-1H-pyrazino[1,2-a]pyrazin-3-yl)-6-fluoro-2-methylbenzonitrile] was tested. Which IC50 did it give?
Its IC50 is 120 nM.

For `Cc1c([C@H]2CN3CCN(C(=O)Cc4ccc(-n5cnnn5)nc4)C[C@H]3CN2)ccc2c1COC2=O` [Example 190, 4-methyl-5-[(3S,9aR)-8-{[6-(1H-tetrazol-1-yl)pyridin-3-yl]acetyl}octahydro-2H-pyrazino[1,2-a]pyrazin-3-yl]-2-benzofuran-1(3H)-one], which IC50 is on record?
The IC50 was 390 nM.

Which IC50 does the source give for `Cc1c([C@H]2CN3CCN(C(=O)Cc4ccc(-n5cnnn5)cn4)C[C@H]3CN2)ccc(F)c1C#N` [Example 191, 6-fluoro-2-methyl-3-[(3S,9aR)-8-{[5-(1H-tetrazol-1-yl)pyridin-2-yl]acetyl}octahydro-2H-pyrazino[1,2-a]pyrazin-3-yl]benzonitrile] here?
The IC50 was 120 nM.

Same assay, conditions: Thallium Flux IC50

For `Cc1c([C@@H]2CN3CCN(C(=O)Cc4ccc(-n5cnnn5)nn4)C[C@@H]3CO2)ccc(F)c1C#N` [Example 156, 6-fluoro-2-methyl-3-[(3R,9aR)-8-{[6-(1H-tetrazol-1-yl)pyridazin-3-yl]acetyl}octahydropyrazino [2,1-c][1,4]oxazin-3-yl]benzonitrile], which IC50 is on record?
The IC50 was 210 nM.

With `Cc1c([C@@H]2CN3CCN(C(=O)Cc4ccc(-n5nnnc5C)cn4)C[C@H]3CO2)ccc(F)c1C#N` [Example 162, 6-fluoro-2-methyl-3-[(3R,9aS)-8-{[5-(5-methyl-1H-tetrazol-1-vl)pvridin-2-yl]acetyl}octahydropyrazino[2,1-c][1,4]oxazin-3-yl]benzonitrile] as the molecule, how does the IC50 read?
Its IC50 is 170 nM.

For `O=C(Cc1ccc(-n2cnnn2)nc1)N1CCN2C[C@@H](c3ccc4nonc4c3)OC[C@@H]2C1` [Example 179, (3R,9aS)-3-(2,1,3-benzoxadiazol-5-yl)-8-{[6-(1H-tetrazol-1-vl)pvridin-3-yl]acetyl}octahydropyrazino[2,1-c][1,4]oxazine], which IC50 is on record?
The IC50 was 180 nM.

How did the IC50 turn out when `O=C(Cc1ccc(-n2cnnn2)nc1)N1CCN2C[C@H](c3ccc4nonc4c3)OC[C@@H]2C1` [Example 180, (3S,9aS)-3-(2,1,3-benzoxadiazol-5-yl)-8-{[6-(1H-tetrazol-1-vl)pvridin-3-yl]acetyl}octahydropyrazino[2,1-c][1,4]oxazine] was run?
Its IC50 is 590 nM.

`N#Cc1c(F)ccc([C@H]2CN3CCN(C(=O)Cc4ccc(-n5cnnn5)nc4)C[C@H]3CO2)c1C1CC1` [Example 181, 2-cyclopropyl-6-fluoro-3-[(3S,9aS)-8-{[6-(1H-tetrazol-1-vl)pvridin-3-yl]acetyl}octahydropyrazino[2,1-c][1,4]oxazin-3-yl]benzonitrile] was tested. Which IC50 did it give?
Its IC50 is 380 nM.

How did the IC50 turn out when `Cc1c([C@H]2CN3CCN(C(=O)Cc4ccc(-n5cnnn5)nc4)C[C@H]3CS2(=O)=O)ccc(F)c1C#N` [Example 187, 3-[(3S,9aS)-2,2-dioxido-8-{[6-(1H-tetrazol-1-yl)pyridin-3-yl]acetyl}octahydropyrazino[2,1-c][1,4]thiazin-3-yl]-6-fluoro-2-methylbenzonitrile] was run?
Its IC50 is 280 nM.

With `Cc1c([C@H]2CN3CCN(C(=O)Cc4ccc(-n5cnnn5)nc4)C[C@H]3CN2)ccc(F)c1C#N` [Example 192, 6-fluoro-2-methyl-3-[(3S,9aR)-8-{[6-(1H-tetrazol-1-yl)pyridin-3-yl]acetyl}octahydro-2H-pyrazino[1,2-a]pyrazin-3-yl]benzonitrile] as the molecule, how does the IC50 read?
Its IC50 is 70 nM.
